In patent US8765953B2, “Compounds and methods for the treatment of pain and other diseases” (Aquilus Pharmaceuticals, Inc., priority 2008, dated 2014):

Experiments:
[1] = In-vitro mouse microsomal stability; type: in vitro ADME; conditions: mouse microsomes, 1 microMolar compound, at T = 60 minutes
Procedure: Human and mouse microsomal stability was determined for select compounds following the method of Houston (Houston, J. B; Biochem. Pharmacol. 47, (1994),1469).
1 μM concentration of compound and separate human and mouse microsomes (0.3 mg/mL, BD bioscience) were used in the in-vitro assay. To ensure proper energy supply for microsomal degradation of compound, an energy regenerating system comprised of 100 mM potassium phosphate, 2 mM NADPH, 3 mM MgCl2, pH=7.4. and the microsomal protein is added to each sample and the resulting suspension is then incubated in duplicate for 60 min at 37° C. in a rotary shaker. A control is run for each test agent in duplicate omitting NADPH to detect NADPH-free degradation. At T=0 and T=60 min., an aliquot is removed from each experimental and control reaction and then mixed with an equal volume of ice-cold Stop Solution (consisting of 0.3% acetic acid in acetonitrile containing haloperidol and diclofenac as internal standards). Stopped reactions are then incubated for at least ten minutes at −20° C., and an additional volume of water is then added. The samples are then centrifuged to remove precipitated protein, and the supernatants are then analyzed by LC-MS/MS to determine the percentage of compound remaining. The LC-MS/MS system used was an Agilent 6410 mass spectrometer coupled with an Agilent 1200 HPLC and a CTC PAL chilled autosampler, all controlled by MassHunter software (Agilent), or an ABI2000 mass spectrometer coupled with an Agilent 1100 HPLC and a CTC PAL chilled autosampler, all controlled by Analyst software (ABI). After separation on a C18 reverse phase HPLC column (Agilent, Waters, or equivalent) using an acetonitrile-water gradient system, peaks were analyzed by mass spectrometry (MS) using ESI ionization in MRM mode.

[2] = tested on: spinal nerve ligation (SNL) mouse model; test: Intraperitoneal (i.p.) SNL-mouse model of neuropathic pain, von Frey mechanical allodynia; type: in vivo
Excerpt: To measure the neuropathic pain inhibiting affects of the MMP inhibitors of the present invention, the spinal nerve ligation (SNL) mouse model was run on a select number of compounds. This model which began with the work of Bennet and coworkers (Bennet, G. J. et al. Pain, 33, (1988), 87-107) and was optimized by Kim and Chung (Kim, S. H.; Chung, J. M. Pain, 50, (1992), 355-363) entails first, under magnification, the removal of one-third of the transverse process and then identifying and then dissecting free the L5 spinal nerve from the adjacent L4 spinal nerve in the mouse. The L5 spinal nerve is then tightly ligated using 6.0 silk suture. The nerve injury leads to hyperalgesia which manifests itself by enhanced responses to mechanical, heat and/or cooling stimuli. In this case, mechanical hyperalgesia is tested via Von Frey monofilaments in which filaments of varying thicknesses and bending force are individually applied to the plantar surface of the foot of the mouse. The threshold force necessary for paw withdrawal decreases dramatically after the nerve surgery. Potent pain inhibitors will reverse this affect resulting in greater force needing to be applied to cause the rodent paw to withdrawal.
Tactile Allodynia Test. Mechanical allodynia was measured using the calibrated von Frey filaments (Semmes-Weinstein monofilaments; Stoelting, Wood Dale, Ill., U.S.A.). The plantar surface of the left injured paw of each animal was tested as described by Chaplan et al. (Journal of Neuroscience Methods, 53, (1994), 55-63). The Fifty percent paw withdrawal threshold response was determined by sequentially increasing or decreasing the stimulus strength according to the “up-down method” of Dixon (Annual Review Pharmacology Toxicology, 20, (1980), 441-462). For mice, […] von Frey filaments were used, with approximately equal logarithmic incremental bending forces (von Frey number: 1.65, 2.36, 2.44, 2.83, 3.22, 3.61, 3.84, 4.08, and 4.17; equivalent to 0.005, 0.02, 0.03, 0.07, 0.17, 0.41, 0.69, 1.20, and 1.48 g force, respectively).
Prior to testing, each animal was placed in a suspended clear plastic chamber with a wire mesh bottom and acclimated for 15 minutes. Testing was initiated with the 0.07 g (handle marking of 2.83) applied perpendicularly to the plantar surface of the affected hind paw; each filament was applied with enough pressure to cause a buckle effect. The absence of a paw lifting/withdrawal response after 6 s prompted the use of the next higher weight filament. Paw withdrawal, indicating a positive response, prompted the use of a weaker filament. After the initial positive response (i.e., paw withdrawal), the testing continued for four additional measurements, and was used to calculate the response threshold. Four consecutive positive responses received a score of 0.001 g, and five consecutive negative responses (i.e., no paw withdrawal) received a score of 1.5 g.
Analyses for Tactile Allodynia Testing. The 50% paw withdrawal threshold was calculated (PWT; Luo and Calcutt, J. Pharmacology Experimental Therapeutics, 303(3), (2002), 1199-1205; Chaplan et al. Journal of Neuroscience Methods, 53, (1994), 55-63) using the formula: 10(Xf+κδ)/10,000 where Xf is the final von Frey filament used (log units), κ is a value that analyzes the response pattern (taken from the table published by Chaplan et al., 1994), and δ is the mean difference between stimuli (log units).
Except for the mode of administration, number of mice/group and the number of injections and amount of compound per injection, the rest of the study was done in the same manner (in regards to the surgeries and tactile allodynia testing and analysis) as Experiment 110. 3.2 mg of each of the MMP inhibitors #5 and #118 were dissolved in 320 microliters of DMSO. To the solution was then added 32 microliters of Tween 80, followed by 2850 microliters of phosphate buffered saline (PBS). This gave a final concentration of 10% DMSO, 1% Tween and 1 mg/ml compound. […]

[3] = cited from earlier work
[4] = i.p. 100 μl/mouse daily (approx. 3.3 mg/Kg), day 1-5

## Cc1ccc(C#Cc2ccc(S(=O)(=O)N[C@H](Cc3c[nH]c4ccccc34)C(=O)O)s2)cc1 [Compound 5, (R)-3-(1H-Indol-3-yl)-2-(5-p-tolylethynyl-thiophene-2-sulfonylamino)-propionic acid]
[1]; with NADPH
  % Mean Remaining Parent with NADPH (%): 83%
[1]; without NADPH (control)
  % Mean Remaining Parent without NADPH (%): 88%
[2]; [4]
  Paw withdrawal threshold, mean, Day 1: 0.078 grams
  Paw withdrawal threshold, mean, Day 2: 0.117 grams
  Paw withdrawal threshold, mean, Day 5: 0.238 grams
  Paw withdrawal threshold, mean, Day 6: 0.099 grams
  Paw withdrawal threshold, mean, Day 7: 0.128 grams
[2]; i.p. study, baseline before treatment
  Paw withdrawal threshold, mean, Day 0 Postoperative Baseline: 0.046 grams
[3]
  Metabolites found in human blood: formation of several hydroxylated metabolites
